Laboratory results taken from PubChem BioAssay (NCI).
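Where inhibition never reached the appropriate level, the endpoint shown equals the highest concentration tested. Otherwise, values were interpolated linearly from a five-concentration, 48-hour dose response in 96-well plates. GI50: concentration for 50% inhibition of growth. At the TGI there is no net growth.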

Legend:
Assay in all cases: DTP human tumour cell line panel, 48 h
[1] = test system: 786-0 renal
[2] = test system: A498 renal
[3] = test system: A549 NSCLC
[4] = test system: ACHN renal
[5] = test system: BT-549 breast
[6] = test system: CAKI-1 renal
[7] = test system: CCRF-CEM leukemia
[8] = test system: COLO 205 colon
[9] = test system: DU-145 prostate
[10] = test system: HCC-2998 colon
[11] = test system: HCT-116 colon
[12] = test system: HCT-15 colon
[13] = test system: HL-60(TB) leukemia
[14] = test system: HOP-62 NSCLC
[15] = test system: HOP-92 NSCLC
[16] = test system: HS 578T breast
[17] = test system: HT29 colon
[18] = test system: IGROV1 ovarian
[19] = test system: K-562 leukemia
[20] = test system: KM12 colon
[21] = test system: LOX IMVI melanoma
[22] = test system: M14 melanoma
[23] = test system: MALME-3M melanoma
[24] = test system: MCF7 breast
[25] = test system: MDA-MB-231 breast
[26] = test system: MDA-MB-435
[27] = test system: MOLT-4 leukemia
[28] = test system: NCI-H226 lung
[29] = test system: NCI-H23 lung

O=C1NC(=NCCc2cccs2)S/C1=C\c1ccc2ncccc2c1
GI50 [1]: 14.5 µM
TGI [1]: > 25 µM
GI50 [2]: 7.59 µM
TGI [2]: > 22.3 µM
GI50 [3]: 8.83 µM
TGI [3]: > 25 µM
GI50 [4]: 8.33 µM
TGI [4]: > 25 µM
GI50 [5]: 6.39 µM
TGI [5]: 22 µM
GI50 [6]: 9.7 µM
TGI [6]: > 25 µM
GI50 [7]: 10.2 µM
TGI [7]: > 25 µM
GI50 [8]: 7.79 µM
TGI [8]: > 25 µM
GI50 [9]: 11.2 µM
TGI [9]: > 25 µM
GI50 [10]: 22.1 µM
TGI [10]: > 25 µM
GI50 [11]: 5.92 µM
TGI [11]: > 25 µM
GI50 [12]: 8.02 µM
TGI [12]: > 25 µM
GI50 [13]: 9.17 µM
TGI [13]: > 25 µM
GI50 [14]: 11.8 µM
TGI [14]: > 25 µM
GI50 [15]: 4.7 µM
TGI [15]: > 25 µM
GI50 [16]: 6.57 µM
TGI [16]: > 21.8 µM
GI50 [17]: 11.8 µM
TGI [17]: > 25 µM
GI50 [18]: 9.1 µM
TGI [18]: > 25 µM
GI50 [19]: 8.85 µM
TGI [19]: > 25 µM
GI50 [20]: 10.8 µM
TGI [20]: > 25 µM
GI50 [21]: 8.12 µM
TGI [21]: > 25 µM
GI50 [22]: 12.1 µM
TGI [22]: > 25 µM
GI50 [23]: > 25 µM
TGI [23]: > 25 µM
GI50 [24]: 8.28 µM
TGI [24]: > 25 µM
GI50 [25]: 19.7 µM
TGI [25]: > 25 µM
GI50 [26]: 6.97 µM
TGI [26]: > 25 µM
GI50 [27]: 12.6 µM
TGI [27]: > 25 µM
GI50 [28]: 8.21 µM
TGI [28]: > 25 µM
GI50 [29]: 9.54 µM
